Experimental findings from patent EP0000693A1, “Aminophenoxymethyl-2-morpholine derivatives, the preparation thereof and pharmaceuticals containing them” (Dr. Karl Thomae GmbH, priority 1977, dated 1979) are described below.

Structures can show the parent of a compound that is named as a salt. Where two headings read alike, the source gives them in different places.

In assay [1] the test system is maximalen Elektrokrampf bei Mäusen. The experiment in a line: Anticonvulsant effect: maximal electroshock seizure (Versuch 2). As to conditions: Mus musculus, 2.5 h. It is filed as in vivo, Maus. The text has this: (§1) Beispielsweise wurden die Verbindungen • A = 2-(2-Amino-3,5-dibrom-phenoxy-methylen)-morpholin-hydrochlorid, • B = 2-(4-Amino-3,5-dibrom-phenoxy-methylen)-4-isopropyl-morpholin- hydrochlorid, • C = 2-(4-Amino-3,5-dibrom-phenoxy-methylen)-morpholin-hydrochlorid, • D = 2-(2-Amino-3,5-dibrom-phenoxy-methylen)-4-tert.butyl-morpholin-hydrochlorid und • E = 2-(2-Amino-5-brom-4-chlor-phenoxy-methylen)-4-isopronyl- morpholin-dihydrochlorid ,im Vergleich zu • F = 2-(2-Äthoxy-phenoxy-methylen)-morpholin-hydrochlorid auf ihre biologischen Wirkungen wie folgt untersucht: • 1. […] Bei 20 - 26 g schweren männlichen Mäusen wurde durch 3 mg/kg Reserpin s.c. Hypothermie erzeugt. 17 Stunden später wurde die Körpertemperatur mittels eines elektrischen Schlundsondenthermometers gemessen. Anschließend wurden Gruppen von 6 - 10 Tieren die zu prüfenden Substanzen in der Dosis von 40 mg/kg p.o. verabreicht. Kontrollgruppen erhielten das Lösungsmittel (Aqua dest.). Die Körpertemperaturen wurden 1 - 4 Stunden nach Substanzverabreichung in stündlichem Abstand gemessen. Zur Auswertung wurden der maximale Wiederanstieg der Körpertemperatur der Substanzgruppe mit den Temperaturen der Kontrolltiergruppen verglichen und die Temperaturunterschiede mit dem MANN-WHITNEY-U-Test auf Signifikanz geprüft. • 2. […] Dazu wurde bei 10 männlichen, 20-26 g schweren Mäusen ein Krampfzustand mit Wechselstrom (50 mA, 50 Hz, 0,2 sec Dauer) über mit physiologischer : Kochsalz-Lösung angefeuchtete, an den Kopf der Tiere gelegte Metallelektroden erzeugt, wobei das Ausbleiben der tonischen Extensorkomponente dieses Krampfes 150 Minuten nach Substanzgabe als antikonvulsive Wirkung gewertet wurde.

The subject of assay [2] is durch Reserpin hervorgerufene Hypothermie bei Mäusen. Description: Antidepressant effect: antagonism of reserpine-induced hypothermia (Versuch 1). It is filed as in vivo, Maus. As to conditions: 40 mg/kg p.o., 17 h after 3 mg/kg Reserpin s.c.; maximal re-rise of body temperature versus controls, measured 1 - 4 h after dosing; * = significant versus controls, p ≤ 0,05.
Source text: as §1

Assay [3] has as its system Muskelrelax. + Sedierung Maus. Description: Muscle relaxation and sedation (Versuch 3). It is filed as in vivo. Conditions: mouse; method text not readable (image).
Where [4] appears, read: male mice, 50 mA, 50 Hz, 0,2 sec, absence of tonic extensor component 150 min after dosing, ED50 by LITCHFIELD and WILCOXON, read-out: Versuch 2 Elektrokrampf Maus ED50-Hemmung.

Consider `Nc1c(Br)cc(Br)cc1OCC1CNCCO1` (stereo not drawn) [A, 2-(2-Amino-3,5-dibrom-phenoxy-methylen)-morpholin-hydrochlorid], for which the ED50 in assay [1] (setting [4]) is 26.5 mg/kg; in assay [3], more than 200 mg/kg. For the same molecule, the “Versuch 1 Reserpin Maus 40 mg/kg: +°C” value in assay [2] is 10,7* °C.
On to `CC(C)N1CCOC(COc2cc(Br)c(N)c(Br)c2)C1` (stereo not drawn) [B, 2-(4-Amino-3,5-dibrom-phenoxy-methylen)-4-isopropyl-morpholin-hydrochlorid], for which the values for the ED50 in assay [1] (setting [4]) and in assay [3] were 26 mg/kg and 60 mg/kg, respectively. For the same molecule, the “Versuch 1 Reserpin Maus 40 mg/kg: +°C” value in assay [2] is 8,4* °C.
In the same order, the values of `Nc1c(Br)cc(OCC2CNCCO2)cc1Br` (stereo not drawn) [C, 2-(4-Amino-3,5-dibrom-phenoxy-methylen)-morpholin-hydrochlorid] are 17.5 mg/kg, 21 mg/kg and 7,3* °C.
For `CC(C)(C)N1CCOC(COc2cc(Br)cc(Br)c2N)C1` (stereo not drawn) [D, 2-(2-Amino-3,5-dibrom-phenoxy-methylen)-4-tert.butyl-morpholin-hydrochlorid] the same measures were 150 mg/kg, more than 200 mg/kg and 0,6 °C.
For `CC(C)N1CCOC(COc2cc(Br)c(Cl)cc2N)C1` (stereo not drawn) [E, 2-(2-Amino-5-brom-4-chlor-phenoxy-methylen)-4-isopronyl-morpholin-dihydrochlorid] the same measures were 200 mg/kg, more than 200 mg/kg and 1,0 °C.
Consider `CCOc1ccccc1OCC1CNCCO1` (stereo not drawn) [F, 2-(2-Äthoxy-phenoxy-methylen)-morpholin-hydrochlorid, reference compound], for which the ED50 in assay [1] (read-out: Versuch 2 Elektrokrampf Maus ED50-Hemmung mg/kg) was 42 mg/kg; in assay [3] it was approximately 200 mg/kg. For the same molecule, the “Versuch 1 Reserpin Maus 40 mg/kg: +°C” value in assay [2] was 9,8* °C.
